These results are taken from US9415087B2, “Compositions and methods for treating coronavirus infection” (LUDWIG-MAXIMILIANS-UNIVERSITAET MUENCHEN, priority 2014, dated 2016).

For test [1], the target named is human CypA (Homo sapiens, UniProt P62937). In kind it is biochemical. Conditions: protease-coupled PPIase assay; read-out: In vitro inhibition human CypA IC50.
Test [2] concerns the target CnA (Homo sapiens, UniProt P62937+P63098+Q08209). In kind it is biochemical. Conditions: for IC50: read-out: In vitro inhibition CnA IC50.
In test [3] the test system is NFAT. Description: NFAT reporter gene assay (luciferase) in Jurkat cells. Conditions: luciferase-coupled NFAT reporter gene assay; for IC50: read-out: In vitro inhibition NFAT reporter gene assay IC50. In kind it is cell-based.
Test [4] deals with HCoV-NL63. Description: microbe, parasite or virus in culture. Conditions: read-out: Inhibition of HCoV-NL63 in CaCo-2 EC50. The class given is cell-based.
The subject of test [5] is NFAT-GFP. Description: NFAT-GFP nuclear translocation assay. Conditions: 40 nM compound, ionomycin 2 μM; yes = non-immunosuppressive.
Test [6] deals with HCoV-NL63 N protein. Description: Western blot of N protein expression in HCoV-NL63-infected CaCo2 cells. The class given is cell-based. Conditions: 48 hours, 0 to 20 μM.
Test [7] concerns HCoV-229E-LUC. The test is described as follows: microbe, parasite or virus in culture. The class given is cell-based. Conditions: for inhibition of 229E-LUC replication (in words): Huh-7.5 cells.
The subject of test [8] is HCoV-229E N protein. The class given is cell-based. Conditions: 48 h.
Test [9] relates to Feline Coronavirus (FCoV-LUC). Description: FCoV-LUC replication in Felis catus whole fetus (fcwf) cells, Renilla luciferase. Conditions: micromolar concentration, FIG. 10. The class given is cell-based.
In test [10] the test system is SARS-CoV-Replicon RNA. In kind it is cell-based. Conditions: BHK-21 cells, 20 hours, FIG. 11.
For test [11], the system named is Mouse Hepatitis Virus (MHV-LUC). The test is described as follows: MHV-LUC replication in L929 cells, luciferase activity. Conditions: micromolar concentration, FIG. 12.
Test [12] concerns lymphocyte proliferation. Conditions: Sadeg et al. 1993; cited from earlier work.
Setting [13] is: Human coronavirus NL63, Caco-2, 48 h.
The mark [14] stands for this setting: Human coronavirus 229E, Huh7.5, 18 h, read-out: EC50 HCoV-229E-LUC, 18 hrs p.I., Huh-7.5, MOI=0.1.
Where [15] appears, read: Human coronavirus 229E, Huh7.5, 48 h, read-out: EC50 HCoV-229E-LUC, 48 hrs p.I., Huh-7.5, MOI=0.1.

Entries after “also recorded” stand apart in the source; their conditions may differ. Read-outs that look alike come from different tables or passages of the source.

CnA, sequence (P62937 whole entry, other chains not shown): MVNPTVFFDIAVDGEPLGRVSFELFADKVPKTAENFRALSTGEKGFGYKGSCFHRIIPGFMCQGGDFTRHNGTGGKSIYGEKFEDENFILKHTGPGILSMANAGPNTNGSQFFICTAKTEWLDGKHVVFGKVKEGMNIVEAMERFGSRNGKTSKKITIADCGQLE
CnA, sequence (P63098 2-170, other chains not shown): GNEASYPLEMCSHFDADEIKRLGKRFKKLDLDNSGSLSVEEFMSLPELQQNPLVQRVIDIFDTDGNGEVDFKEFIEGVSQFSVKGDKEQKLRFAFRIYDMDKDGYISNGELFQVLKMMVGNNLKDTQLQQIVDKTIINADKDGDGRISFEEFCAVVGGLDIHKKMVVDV
human CypA, sequence (P62937 whole entry): as the sequence (P62937 whole entry, other chains not shown) above

Regarding `CCOP(=O)(CC=CCC(C)C(O)C1C(=O)NC(CC)C(=O)N(C)CC(=O)N(C)C(CC(C)C)C(=O)NC(C(C)C)C(=O)N(C)C(CC(C)C)C(=O)NC(C)C(=O)NC(C)C(=O)N(C)C(CC(C)C)C(=O)N(C)C(CC(C)C)C(=O)N(C)C(C(C)C)C(=O)N1C)OCC` (mixture of isomers) [Compound 1], the IC50 (usually the concentration that gives 50% inhibition) in test [1] amounted to 0.0091 µM. Further, the “In vitro inhibition CnA IC50” value in test [2] (binary PPIase/drug complexes) was “could not be inhibited at all and no”. Besides, the “In vitro inhibition NFAT reporter gene assay IC50” value in test [3] is reported as “no”. Moreover, the half-maximal effective concentration (EC50) (in general, the concentration that produces a half-maximal response) in test [4] is 1.6 µM. In addition, in test [5], the “NFAT-GFP translocation in HEK-293 cells (to the nucleus)” value (“NFAT-GFP translocation in HEK-293 cells” below) is listed as “yes”.

Turning to `C/C=C/C[C@@H](C)[C@@H](O)[C@H]1C(=O)N[C@@H](CC)C(=O)N(C)[C@H](C)C(=O)N(CC)[C@@H](C(C)C)C(=O)N[C@@H](C(C)C)C(=O)N(C)[C@@H](CC(C)C)C(=O)N[C@@H](C)C(=O)N[C@H](C)C(=O)N(C)[C@@H](CC(C)C)C(=O)N(C)[C@@H](CC(C)C)C(=O)N(C)[C@@H](C(C)C)C(=O)N1C` [ALV, Alisporivir], the values for the EC50 in test [4] (setting [13]), in [7] (setting [14]) and in test [7] (setting [15]) were 0.8 µM, 2.77 µM and 1.37 µM, respectively. In addition, in [6], the “concentration at which HCoV-NL63 N-protein decreases” value was determined as 1.25 µM. Further, the “inhibition of 229E-LUC replication (in words)” value in test [7] is recorded as “low micromolar range”. Moreover, the “concentration at which HCoV-229E N protein is not detectable anymore” value in test [8] (Western blot) turned out to be 1.25 µM. Moreover, the “inhibition of feline Coronavirus spread (in words)” value in test [9] is listed as “inhibits spread”. The “inhibition of SARS-CoV-RNA replicon propagation (in words)” value in test [10] is “inhibition”. Also, the “NFAT-GFP translocation in HEK-293 cells” value in test [5] is recorded as “yes”. In addition, the “inhibition of murine Coronavirus spread (in words)” value in [11] is listed as “inhibits spread”.

As to `CCC1NC(=O)C(C(O)C(C)CC=CCN(C)C)N(C)C(=O)C(C(C)C)N(C)C(=O)C(CC(C)C)N(C)C(=O)C(CC(C)C)N(C)C(=O)C(C)NC(=O)C(C)NC(=O)C(CC(C)C)N(C)C(=O)C(C(C)C)NC(=O)C(CC(C)C)N(C)C(=O)CN(C)C1=O` (centres unmarked) [Compound 2], the EC50 in test [4] turned out to be 7.9 µM. For the same compound, the “NFAT-GFP translocation in HEK-293 cells” value in test [5] is listed as “yes”.

For the compound `CCC1NC(=O)C(C(O)C(C)Cc2nc3ccc(C(=O)OC)cc3[nH]2)N(C)C(=O)C(C(C)C)N(C)C(=O)C(CC(C)C)N(C)C(=O)C(CC(C)C)N(C)C(=O)C(C)NC(=O)C(C)NC(=O)C(CC(C)C)N(C)C(=O)C(C(C)C)NC(=O)C(CC(C)C)N(C)C(=O)CN(C)C1=O` (centres unmarked) [Compound 3], the IC50 turned out to be 0.0119 µM in [1] and 6.9 µM in test [2]. Also, the EC50 in test [4] was 1.1 µM; in test [7] (18 hrs p.I., Huh-7.5, MOI=0.1, read-out: EC50 HCoV-229E-LUC), 2.05 µM; in test [7] (48 hrs p.I., Huh-7.5, MOI=0.1, listed as Comp. 3, read-out: EC50 HCoV-229E-LUC), 0.92 µM; in test [7] (48 hrs p.I., Huh-7.5, MOI=0.1, read-out: EC50 HCoV-229E-LUC) it was 0.97 µM. Further, the “concentration at which HCoV-NL63 N-protein decreases” value in [6] amounted to 1.25 µM. For the same compound, the “inhibition of 229E-LUC replication (in words)” value in test [7] is given as “low micromolar range”. Moreover, the “NFAT-GFP translocation in HEK-293 cells” value in [5] was “yes”.

Turning to `CCC1NC(=O)C(C(O)C(C)Cc2nc3ccc(C(=O)c4ccccc4)cc3[nH]2)N(C)C(=O)C(C(C)C)N(C)C(=O)C(CC(C)C)N(C)C(=O)C(CC(C)C)N(C)C(=O)C(C)NC(=O)C(C)NC(=O)C(CC(C)C)N(C)C(=O)C(C(C)C)NC(=O)C(CC(C)C)N(C)C(=O)CN(C)C1=O` (centres unmarked) [Compound 4], the IC50 was 0.0141 µM in test [1], ~10 µM in [2] (binary PPIase/drug complexes) and 1.3 µM in [3]. Moreover, in test [4], the EC50 worked out at 8.1 µM. The “NFAT-GFP translocation in HEK-293 cells” value in test [5] is listed as “yes”.

As for `CCC1NC(=O)C(C(O)C(C)Cc2nc3ccc(-c4nc5ccccc5s4)cc3[nH]2)N(C)C(=O)C(C(C)C)N(C)C(=O)C(CC(C)C)N(C)C(=O)C(CC(C)C)N(C)C(=O)C(C)NC(=O)C(C)NC(=O)C(CC(C)C)N(C)C(=O)C(C(C)C)NC(=O)C(CC(C)C)N(C)C(=O)CN(C)C1=O` (centres unmarked) [Compound 5], the IC50 was 0.0166 µM in [1], > 10 µM in test [2] (binary PPIase/drug complexes) and 1.2 µM in test [3]. For the same compound, in test [4], the concentration for a half-maximal effect (EC50) was found to be 2.3 µM. Moreover, in test [5], the “NFAT-GFP translocation in HEK-293 cells” value was “yes”.

Consider `C/C=C/C[C@@H](C)[C@@H](O)[C@H]1C(=O)N[C@@H](C(C)C)C(=O)N(C)CC(=O)N(C)[C@@H](CC(C)C)C(=O)N[C@@H](C(C)C)C(=O)N(C)[C@@H](CC(C)C)C(=O)N[C@@H](C)C(=O)N[C@H](C)C(=O)N(C)[C@@H](CC(C)C)C(=O)N(C)[C@@H](CC(C)C)C(=O)N(C)[C@@H](C(C)C)C(=O)N1C` [CsD], for which the EC50 in test [4] was 2.5 µM. In addition, the “immunosuppressant activity in lymphocyte proliferation assays relative to CsA” value in test [12] is “about 10 % of the CsA activity”. Besides, in [5], the “NFAT-GFP translocation in HEK-293 cells” value is “remained in the cytoplasm and no”.

Consider `C/C=C/C[C@@H](C)[C@@H](O)[C@H]1C(=O)N[C@@H](CC)C(=O)N(C)CC(=O)N(C)[C@@H](CC(C)C)C(=O)N[C@@H](C(C)C)C(=O)N(C)[C@@H](CC(C)C)C(=O)N[C@@H](C)C(=O)N[C@H](C)C(=O)N(C)[C@@H](CC(C)C)C(=O)N(C)[C@@H](CC(C)C)C(=O)N(C)[C@H](C(C)C)C(=O)N1C` [CsH, Cyclosporin H], for which, in test [7], the “inhibition of 229E-LUC replication (in words)” value is given as “slight residual inhibitory activity; also recorded: do not inhibit”. In addition, the “HCoV-229E N protein synthesis (in words)” value in test [8] (at 20 μM) is recorded as “allow significant N protein synthesis”.

For `C=CC[C@@H]1/C=C(\C)C[C@H](C)C[C@H](OC)[C@H]2O[C@@](O)(C(=O)C(=O)N3CCCC[C@H]3C(=O)O[C@H](/C(C)=C/[C@@H]3CC[C@@H](O)[C@H](OC)C3)[C@H](C)[C@@H](O)CC1=O)[C@H](C)C[C@@H]2OC` [FK506], the EC50 in test [4] (setting [13]) came out at 6.6 µM; in test [7] (setting [14]) it was 2.96 µM; in [7] (setting [15]), 0.86 µM.

In the case of `C/C=C/C[C@@H](C)[C@@H](O)[C@H]1C(=O)N[C@@H](CC)C(=O)N(C)CC(=O)N(C)[C@@H]([C@@H](C)CC)C(=O)N[C@@H](C(C)C)C(=O)N(C)[C@@H](CC(C)C)C(=O)N[C@@H](C)C(=O)N[C@H](C)C(=O)N(C)[C@@H](CC(C)C)C(=O)N(C)[C@@H](CC(C)C)C(=O)N(C)[C@@H](C(C)C)C(=O)N1C` [NIM811], the EC50 in [4] (setting [13]) was 0.8 µM; in test [7] (setting [14]), 3.11 µM; in [7] (setting [15]) it was 1.19 µM. The “concentration at which HCoV-NL63 N-protein decreases” value in test [6] came to 1.25 µM. The “inhibition of 229E-LUC replication (in words)” value in test [7] is reported as “low micromolar range”. For the same compound, the “inhibition of feline Coronavirus spread (in words)” value in [9] is recorded as “inhibits spread”. For the same compound, in test [10], the “inhibition of SARS-CoV-RNA replicon propagation (in words)” value is “inhibition”. Besides, the “NFAT-GFP translocation in HEK-293 cells” value in test [5] is “yes”. The “inhibition of murine Coronavirus spread (in words)” value in test [11] is “inhibits spread”.
